pIC50, pKd: −log10 of the molar value.
Columns and labels:
[1] = test system: P. falciparum sporozoites; assay: Sporozoite infection of primary human hepatocytes, high-content imaging; format: cell-based, Plasmodium falciparum; settings: Plasmodium falciparum, Hepatocyte
Procedure: Liver stage antimalarial activity was evaluated using sporozoites from P. falciparum (NF54 strain) and P. cynomolgi bastianellii (B strain). P. falciparum-infected Anopheles stephensi mosquitoes were reared at WRAIR, while P. cynomolgi-infected Anopheles dirus mosquitoes were obtained from the Armed Forces Research Institute of Medical Sciences (AFRIMS), Thailand. Sporozoites were isolated by dissecting salivary glands under sterile conditions, followed by gentle mechanical disruption. Freshly isolated sporozoites were immediately used for hepatocyte infection. […]
(§1) Cells were fixed using 4% paraformaldehyde for 20 minutes at room temperature, followed by three PBS washes, and stored at 4°C until further processing. Parasite detection was performed using species-specific primary antibodies, with P. cynomolgi parasites labeled using a mouse monoclonal anti-Plasmodium GAPDH antibody (1.6 μg/mL, European Malaria Reagent Repository) and P. falciparum parasites detected using a rabbit polyclonal anti-PfHSP70 antibody (1:70 dilution, LS Bio, USA). […]
High-content imaging was performed using the Operetta CLS system (Revvity) and image analysis was performed with Harmony software version 4.9 (Revvity, Waltham, MA, USA). Images were acquired at 10x or 20x magnification using DAPI and TRITC fluorescence channels. […]

P. cynomolgi hypnozoite = assay: Hypnozoite formation in primary simian hepatocytes, high-content imaging; format: cell-based, Plasmodium cynomolgi; settings: Plasmodium cynomolgi, Hepatocyte
Procedure: Liver stage antimalarial activity was evaluated using sporozoites from P. falciparum (NF54 strain) and P. cynomolgi bastianellii (B strain). P. falciparum-infected Anopheles stephensi mosquitoes were reared at WRAIR, while P. cynomolgi-infected Anopheles dirus mosquitoes were obtained from the Armed Forces Research Institute of Medical Sciences (AFRIMS), Thailand. Sporozoites were isolated by dissecting salivary glands under sterile conditions, followed by gentle mechanical disruption. Freshly isolated sporozoites were immediately used for hepatocyte infection.
(§2) Primary cryopreserved hepatocytes were selected based on host-parasite compatibility: primary simian hepatocytes (lot OQB) for P. cynomolgi and human hepatocytes (lot BGW) for P. falciparum (BioIVT Inc., Baltimore, MD, USA). Cells were thawed according to the manufacturer’s protocol and seeded into 384-well collagen-coated assay plates (Greiner Bio-One, Monroe, NC, USA) using InVitroGro CP plating medium (BioIVT). Seeding densities were optimized for uniform monolayer formation, and hepatocytes were allowed to adhere for 24–48 hours before infection. Sporozoites were added at a 1:1.1 hepatocyte-to-sporozoite ratio within 48 hours post-seeding. Automated robotic systems were used for media changes and compound additions to ensure assay consistency and minimize variability associated with manual pipetting.
Test compounds (PfPKG inhibitors) and assay drug controls (KDU-691 and tafenoquine) were solubilized in DMSO or PBS and serially diluted into 8- or 12-point, 2- or 3-fold series, achieving final assay concentrations ranging from 20 µM to 0.019 µM. Compounds were introduced using a calibrated pin tool controlled by robotic arms (V&P Scientific), ensuring a 1:1000 dilution into assay wells. Media were replenished daily with fresh drug-containing HCM. […]
as §1
High-content imaging was performed using the Operetta CLS system (Revvity) and image analysis was performed with Harmony software version 4.9 (Revvity, Waltham, MA, USA). Images were acquired at 10x or 20x magnification using DAPI and TRITC fluorescence channels. Following the established protocol, parasites were classified as hypnozoites or schizonts based on fluorescence intensity (mean and maximum), morphological features (cell roundness and size), and segmentation criteria. […]

[2] = Cellular cytotoxicity, hepatocyte nuclear counts; format: cell-based, simian; settings: simian, primary cryopreserved simian hepatocytes (lot OQB); cellular cytotoxicity
Description: as §2
Test compounds (PfPKG inhibitors) and assay drug controls (KDU-691 and tafenoquine) were solubilized in DMSO or PBS and serially diluted into 8- or 12-point, 2- or 3-fold series, achieving final assay concentrations ranging from 20 µM to 0.019 µM. Compounds were introduced using a calibrated pin tool controlled by robotic arms (V&P Scientific), ensuring a 1:1000 dilution into assay wells. Media were replenished daily with fresh drug-containing HCM. Compounds were added 1-hour post-infection (p.i.) (day 0) and administered daily for 3 days. Cells were fixed on day 6 p.i. of P. falciparum culture and day 8 for P. cynomolgi infected culture, coinciding with liver stage schizont maturation.
High-content imaging was performed using the Operetta CLS system (Revvity) and image analysis was performed with Harmony software version 4.9 (Revvity, Waltham, MA, USA). Images were acquired at 10x or 20x magnification using DAPI and TRITC fluorescence channels. Following the established protocol, parasites were classified as hypnozoites or schizonts based on fluorescence intensity (mean and maximum), morphological features (cell roundness and size), and segmentation criteria. Hepatocyte nuclei were identified using Hoechst 33342 staining. Background signal was captured in uninfected, stained wells and subjected to the same parasite detection algorithm. Estimate erroneous parasite counts were then subtracted from infected well counts. Hepatocyte viability was determined by quantifying nuclear counts per well using Hoechst stain intensity thresholds. […] An in-house built Python-based image analysis script identified parasite objects using predefined fluorescence intensity thresholds. […] Parasite size was quantified by calculating the average object area (µm²) of validated parasite structures per well. […] Dose-response inhibition and IC50 were calculated relative to in-plate negative controls (DMSO-treated wells). […]

[3] = test system: P. berghei sporozoites (PbLuc-GFP); assay: In vivo chemoprotective efficacy against sporozoite liver infection; parameters: species or system Plasmodium berghei in mice; settings: 10 mg/kg x 3; for Prepatent period mean ± sd: blood stages by flow cytometry
Procedure: In the first experiment, mice were administered three doses, intravenously (IV) or orally (PO), of compound (10 mg/kg) - two prior to sporozoite inoculation to block sporozoite invasion of hepatocytes and the third at 36 hpi to prevent egress of liver stages (Fig 3A). In vivo bioluminescent imaging (IVIS) of mice was utilized to detect and quantify relative parasitemia in the liver and flow cytometry was used to detect the appearance of blood stage parasites. Vehicle-treated mice were used as a negative control.
In vivo chemoprotective efficacy was evaluated using luciferase-expressing P. berghei ANKA sporozoites. […] Liver stage parasite burden was measured 42–48 h p.i. by bioluminescence imaging (IVIS Spectrum). Photon flux from the liver region was quantified using Living Image software. All animal procedures were approved by the Rutgers Institutional Animal Care and Use Committee (IACUC).

CIT = molecular target: T1, CIT (Homo sapiens, UniProt O14578); assay: KdElect binding affinity assay; settings: read-out: CIT Experimental Kd
T1 construct: purchased Eurofins (DiscoverX)
T1 sequence (O14578 whole entry): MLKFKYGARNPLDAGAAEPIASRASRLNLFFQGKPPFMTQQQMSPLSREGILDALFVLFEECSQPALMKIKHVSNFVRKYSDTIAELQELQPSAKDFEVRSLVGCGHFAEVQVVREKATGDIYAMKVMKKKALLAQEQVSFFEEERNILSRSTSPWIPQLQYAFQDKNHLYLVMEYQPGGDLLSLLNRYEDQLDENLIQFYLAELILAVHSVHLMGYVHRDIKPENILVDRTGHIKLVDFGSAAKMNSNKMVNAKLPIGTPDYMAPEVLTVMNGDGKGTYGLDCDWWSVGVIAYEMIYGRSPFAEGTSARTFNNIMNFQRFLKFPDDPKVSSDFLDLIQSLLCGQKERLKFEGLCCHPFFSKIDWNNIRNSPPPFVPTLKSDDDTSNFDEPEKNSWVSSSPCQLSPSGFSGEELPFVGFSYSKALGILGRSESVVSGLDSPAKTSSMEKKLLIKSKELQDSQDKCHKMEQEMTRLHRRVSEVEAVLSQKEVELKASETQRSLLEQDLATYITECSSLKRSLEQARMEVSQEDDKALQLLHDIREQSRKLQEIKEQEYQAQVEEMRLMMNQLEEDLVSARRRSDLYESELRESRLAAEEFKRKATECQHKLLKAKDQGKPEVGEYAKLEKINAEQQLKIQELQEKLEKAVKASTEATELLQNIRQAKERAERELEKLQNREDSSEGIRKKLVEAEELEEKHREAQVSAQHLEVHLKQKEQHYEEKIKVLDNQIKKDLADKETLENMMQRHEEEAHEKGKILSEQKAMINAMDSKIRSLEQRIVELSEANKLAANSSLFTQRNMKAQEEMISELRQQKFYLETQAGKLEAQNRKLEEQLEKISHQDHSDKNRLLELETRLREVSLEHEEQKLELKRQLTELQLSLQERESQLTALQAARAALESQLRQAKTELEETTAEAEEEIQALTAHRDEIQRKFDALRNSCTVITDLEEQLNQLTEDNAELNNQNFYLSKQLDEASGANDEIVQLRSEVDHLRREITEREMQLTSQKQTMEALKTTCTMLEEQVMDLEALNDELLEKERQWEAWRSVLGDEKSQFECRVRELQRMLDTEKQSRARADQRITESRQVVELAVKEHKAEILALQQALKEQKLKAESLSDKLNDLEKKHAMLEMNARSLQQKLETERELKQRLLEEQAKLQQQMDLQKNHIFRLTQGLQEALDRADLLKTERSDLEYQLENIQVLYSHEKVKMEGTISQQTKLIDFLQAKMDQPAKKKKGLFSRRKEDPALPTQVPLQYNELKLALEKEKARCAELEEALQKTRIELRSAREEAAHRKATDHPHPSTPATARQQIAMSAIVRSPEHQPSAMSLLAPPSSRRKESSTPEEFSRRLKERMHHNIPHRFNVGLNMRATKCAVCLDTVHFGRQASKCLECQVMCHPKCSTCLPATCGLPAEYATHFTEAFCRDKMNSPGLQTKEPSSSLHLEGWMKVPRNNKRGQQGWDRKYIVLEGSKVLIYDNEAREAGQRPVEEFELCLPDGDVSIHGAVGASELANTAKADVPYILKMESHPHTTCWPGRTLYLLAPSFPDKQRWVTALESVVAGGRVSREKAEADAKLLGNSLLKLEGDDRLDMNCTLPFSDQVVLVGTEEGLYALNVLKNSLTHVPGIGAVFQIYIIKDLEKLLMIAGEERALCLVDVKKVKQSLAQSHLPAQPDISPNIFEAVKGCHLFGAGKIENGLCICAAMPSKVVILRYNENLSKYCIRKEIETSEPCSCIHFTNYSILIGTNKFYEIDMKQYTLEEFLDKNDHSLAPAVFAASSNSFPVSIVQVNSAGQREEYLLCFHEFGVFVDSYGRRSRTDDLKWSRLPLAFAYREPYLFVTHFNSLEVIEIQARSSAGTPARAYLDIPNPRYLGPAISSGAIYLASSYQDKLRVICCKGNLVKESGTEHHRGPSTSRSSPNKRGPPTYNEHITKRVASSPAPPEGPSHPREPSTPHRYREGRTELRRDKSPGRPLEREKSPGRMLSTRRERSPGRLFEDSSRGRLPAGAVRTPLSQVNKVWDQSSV
Procedure: (§3) Off-target kinase inhibition was assessed using the DiscoverX scanMAX (Eurofins) panel at 1 µM compound concentration. Binding affinities of CIT, ROCK1 and ROCK2 were evaluated using the KdElect assay (Eurofins).

ROCK2 = molecular target: T2, ROCK2 (Homo sapiens, UniProt O75116); assay: KdElect binding affinity assay; settings: read-out: ROCK2 Experimental Kd
T2 construct: purchased Eurofins (DiscoverX)
T2 sequence (O75116 whole entry): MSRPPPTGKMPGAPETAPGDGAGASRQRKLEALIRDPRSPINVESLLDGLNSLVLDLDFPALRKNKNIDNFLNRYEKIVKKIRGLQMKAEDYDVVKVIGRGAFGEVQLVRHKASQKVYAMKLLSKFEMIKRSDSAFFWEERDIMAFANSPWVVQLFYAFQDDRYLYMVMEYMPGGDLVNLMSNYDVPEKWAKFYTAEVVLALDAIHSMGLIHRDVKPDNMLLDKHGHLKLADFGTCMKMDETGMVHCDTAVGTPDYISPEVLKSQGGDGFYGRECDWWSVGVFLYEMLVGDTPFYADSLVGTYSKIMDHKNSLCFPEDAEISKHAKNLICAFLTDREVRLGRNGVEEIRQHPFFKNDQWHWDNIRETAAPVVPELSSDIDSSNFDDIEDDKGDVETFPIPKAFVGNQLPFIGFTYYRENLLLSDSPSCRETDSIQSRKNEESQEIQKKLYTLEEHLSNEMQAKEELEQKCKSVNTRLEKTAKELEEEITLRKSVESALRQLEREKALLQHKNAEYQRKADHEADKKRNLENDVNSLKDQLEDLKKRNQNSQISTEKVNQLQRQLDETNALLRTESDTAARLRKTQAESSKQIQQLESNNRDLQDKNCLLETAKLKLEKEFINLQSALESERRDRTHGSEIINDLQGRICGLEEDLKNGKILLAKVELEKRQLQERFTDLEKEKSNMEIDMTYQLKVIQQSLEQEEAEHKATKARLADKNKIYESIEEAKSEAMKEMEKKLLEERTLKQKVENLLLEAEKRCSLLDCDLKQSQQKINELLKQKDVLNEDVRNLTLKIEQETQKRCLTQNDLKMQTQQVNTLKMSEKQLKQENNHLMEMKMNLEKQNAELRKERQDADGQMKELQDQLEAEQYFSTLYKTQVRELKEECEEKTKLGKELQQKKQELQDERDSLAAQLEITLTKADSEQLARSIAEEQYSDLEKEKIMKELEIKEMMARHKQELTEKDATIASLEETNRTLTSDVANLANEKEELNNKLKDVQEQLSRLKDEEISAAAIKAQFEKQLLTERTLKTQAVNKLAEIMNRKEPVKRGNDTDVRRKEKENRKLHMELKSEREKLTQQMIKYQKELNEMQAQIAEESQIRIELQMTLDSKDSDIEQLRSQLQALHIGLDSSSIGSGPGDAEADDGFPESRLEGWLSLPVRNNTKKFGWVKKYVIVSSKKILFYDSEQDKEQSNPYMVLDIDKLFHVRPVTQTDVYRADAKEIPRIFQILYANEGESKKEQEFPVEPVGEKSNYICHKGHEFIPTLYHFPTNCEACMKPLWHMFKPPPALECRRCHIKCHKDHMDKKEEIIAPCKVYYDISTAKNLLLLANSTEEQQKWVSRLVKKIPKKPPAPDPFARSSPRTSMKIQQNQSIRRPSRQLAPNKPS
Procedure: as §3

## C[C@@H]1CN(C)CC[C@@H]1c1cc(-c2ccncc2)c(-c2ccc(F)cc2)[nH]1.Cl.Cl [RUPB-61, 4-{5-[(3S,4S)-1,3-Dimethylpiperidin-4-yl]-2-(4-fluorophenyl)-1H-pyrrol-3-yl}pyridine Dihydrochloride]
[1]
  pIC50: 7.10
P. cynomolgi hypnozoite
  pIC50: 6.72
[2]
  CC50 at 3 days: > 20 µM
[3]; IV or PO, 10 mice, bioluminescent imaging
  mice showing liver parasitemia as late as 144 hpi: none
[3]; IV or oral
  mice displaying blood stage parasites in the 3 week observation period: none
[3]; Intravenous
  No. of mice patent by D21/ No. of mice inoculated: 0/5
  Prepatent period mean ± sd: negative
[3]; Oral
  No. of mice patent by D21/ No. of mice inoculated: 0/5
  Prepatent period mean ± sd: negative
CIT
  pKd: 8.28
ROCK2
  pKd: 7.89
